Counter-ions that a name gives are not always drawn.
What was measured:
[1] = biological target: T1, epithelial sodium channel (ENaC) (Canis lupus familiaris, UniProt A0A8I3MKE6+A0A8I3Q679+Q95165); test: ENaC blocking activity, short circuit current in airway epithelial monolayers in Ussing chambers; assay type: cell-based; conditions: canine bronchial epithelia; for ENaC blocking potency relative to Amiloride: fold potency versus amiloride; for IC50: lumenal addition, propranolol 10 μM applied first
T1 construct: endogenous in cells; host or cells: primary canine bronchial epithelial cells cultured at air-liquid interface
T1 sequence (A0A8I3Q679 1-649): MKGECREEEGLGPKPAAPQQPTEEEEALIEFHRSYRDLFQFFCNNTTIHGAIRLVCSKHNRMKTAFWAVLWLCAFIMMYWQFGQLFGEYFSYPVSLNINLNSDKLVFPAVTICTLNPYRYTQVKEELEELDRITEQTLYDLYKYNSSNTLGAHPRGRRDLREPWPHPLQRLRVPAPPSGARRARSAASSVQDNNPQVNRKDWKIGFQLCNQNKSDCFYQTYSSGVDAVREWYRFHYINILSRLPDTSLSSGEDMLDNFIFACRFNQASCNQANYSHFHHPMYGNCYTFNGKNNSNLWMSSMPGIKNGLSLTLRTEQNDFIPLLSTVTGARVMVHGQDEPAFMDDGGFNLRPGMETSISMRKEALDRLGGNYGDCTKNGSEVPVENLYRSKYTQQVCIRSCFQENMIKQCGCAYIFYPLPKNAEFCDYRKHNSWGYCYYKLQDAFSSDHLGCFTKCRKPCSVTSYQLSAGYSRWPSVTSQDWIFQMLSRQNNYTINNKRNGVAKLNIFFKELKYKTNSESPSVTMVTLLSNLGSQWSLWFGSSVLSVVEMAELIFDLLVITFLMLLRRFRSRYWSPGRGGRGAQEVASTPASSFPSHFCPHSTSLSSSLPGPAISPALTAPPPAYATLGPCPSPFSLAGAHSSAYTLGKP
T1 sequence (Q95165 1-641): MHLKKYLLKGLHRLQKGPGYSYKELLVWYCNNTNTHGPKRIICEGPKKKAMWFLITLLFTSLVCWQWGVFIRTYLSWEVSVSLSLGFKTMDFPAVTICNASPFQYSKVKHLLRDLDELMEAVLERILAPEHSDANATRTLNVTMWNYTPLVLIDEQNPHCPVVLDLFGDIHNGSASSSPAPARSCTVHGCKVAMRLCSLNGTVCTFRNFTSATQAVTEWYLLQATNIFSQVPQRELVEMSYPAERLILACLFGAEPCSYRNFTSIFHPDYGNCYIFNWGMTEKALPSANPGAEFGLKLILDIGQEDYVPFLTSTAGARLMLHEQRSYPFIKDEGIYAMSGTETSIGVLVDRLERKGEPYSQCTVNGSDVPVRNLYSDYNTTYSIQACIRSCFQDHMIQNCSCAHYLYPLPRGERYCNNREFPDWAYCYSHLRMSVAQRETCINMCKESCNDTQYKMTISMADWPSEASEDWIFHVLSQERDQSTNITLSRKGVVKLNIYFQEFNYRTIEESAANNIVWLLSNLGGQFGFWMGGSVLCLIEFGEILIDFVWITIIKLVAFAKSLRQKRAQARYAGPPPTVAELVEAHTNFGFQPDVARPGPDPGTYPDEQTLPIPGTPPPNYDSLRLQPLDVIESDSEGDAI
T1 sequence (A0A8I3MKE6 1-646): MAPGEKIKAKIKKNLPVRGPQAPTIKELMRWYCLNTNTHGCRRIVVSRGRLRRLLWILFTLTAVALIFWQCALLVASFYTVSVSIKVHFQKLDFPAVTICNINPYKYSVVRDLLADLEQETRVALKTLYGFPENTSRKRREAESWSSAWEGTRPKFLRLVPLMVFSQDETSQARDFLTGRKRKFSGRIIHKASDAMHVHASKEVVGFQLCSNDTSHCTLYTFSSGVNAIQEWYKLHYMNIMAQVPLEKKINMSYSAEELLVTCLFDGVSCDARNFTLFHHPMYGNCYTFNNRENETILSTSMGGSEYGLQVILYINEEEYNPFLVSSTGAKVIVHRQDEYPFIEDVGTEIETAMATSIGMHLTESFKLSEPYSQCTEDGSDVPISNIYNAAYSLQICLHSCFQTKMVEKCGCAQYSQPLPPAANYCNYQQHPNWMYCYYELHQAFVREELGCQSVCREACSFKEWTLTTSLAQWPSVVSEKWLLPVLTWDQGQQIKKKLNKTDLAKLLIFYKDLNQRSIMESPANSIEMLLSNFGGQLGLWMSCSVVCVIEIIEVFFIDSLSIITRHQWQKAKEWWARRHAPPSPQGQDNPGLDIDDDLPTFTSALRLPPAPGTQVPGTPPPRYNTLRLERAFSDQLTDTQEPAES
Method: To assess epithelial sodium channel blocker potency the compounds of the present invention involves the determination of lumenal drug inhibition of airway epithelial sodium currents measured under short circuit current (ISC) using airway epithelial monolayers mounted in Ussing chambers. Cells obtained from freshly excised human, or dog airways are seeded onto porous 0.4 micrometer Transwell® Permeable Supports (Corning Inc. Acton, Mass.), cultured at air-liquid interface (ALI) conditions in hormonally defined media, and assayed for sodium transport activity (ISC) while bathed in Krebs Bicarbonate Ringer (KBR) in Ussing chambers. All test drug additions are to the lumenal bath with approximately half-log dose additions (from 1×10^−11 M to 6×10^−5 M), and the cumulative change in ISC (decreases) recorded. All drugs are prepared in dimethyl sulfoxide as stock solutions at a concentration of approximately 1×10^−2 and stored at −20° C. Six preparations are typically run in parallel; one preparation per run incorporates 552-02 as a positive control. Before the start of the concentration-effect relationship propranolol, a non-selective […], was applied to the lumenal bath (10 μM) to inhibit the beta agonist component of the designer multiple ligand (DML). All data from the voltage clamps are collected via a computer face and analyzed off-line.
Concentration-effect relationships for all compounds are considered and analyzed Using GraphPad Prism version 3.00 for Windows, GraphPad Software, San Diego Calif. USA. IC50 values, […], are calculated and compared to the 552-02 potency as a positive control.

beta-adrenergic receptor = biological target: T2, beta-adrenergic receptor (Canis lupus familiaris, UniProt P54833); test: Beta agonist activity, anion secretion short circuit current in airway epithelial monolayers in Ussing chambers; assay type: cell-based, canine
T2 construct: endogenous in cells; host or cells: primary canine bronchial epithelial cells cultured at air-liquid interface
T2 sequence (P54833 whole entry): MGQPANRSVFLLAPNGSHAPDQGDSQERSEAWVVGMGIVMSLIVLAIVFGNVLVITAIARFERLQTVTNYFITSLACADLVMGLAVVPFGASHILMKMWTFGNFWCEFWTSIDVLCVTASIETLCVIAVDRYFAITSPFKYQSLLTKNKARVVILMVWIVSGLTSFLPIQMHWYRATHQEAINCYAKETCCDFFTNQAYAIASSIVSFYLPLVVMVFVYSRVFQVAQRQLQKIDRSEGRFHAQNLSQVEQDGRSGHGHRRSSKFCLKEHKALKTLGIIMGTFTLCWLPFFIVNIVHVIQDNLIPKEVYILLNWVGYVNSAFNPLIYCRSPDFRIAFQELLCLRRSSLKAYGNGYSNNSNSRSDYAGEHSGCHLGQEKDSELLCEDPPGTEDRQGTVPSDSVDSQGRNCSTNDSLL
Method: To assess beta agonist activity the compounds of the present invention involves the determination of lumenal drug addition to promote airway epithelial anion currents measured under short circuit current (ISC) using airway epithelial monolayers mounted in Ussing chambers. Cells obtained from freshly excised human, dog, or sheep airways are seeded onto porous 0.4 micron Transwell® Permeable Supports (Corning), cultured at air-liquid interface (ALI) conditions in hormonally defined media, and assayed for anion secretion (ISC) while bathed in Krebs Bicarbonate Ringer (KBR) in Ussing chambers. All test drug additions are to the lumenal bath with approximately half-log dose additions (from 8×10^−10 M to 6.5×10^−5 M), and the cumulative change in ISC (excitation) recorded. All drugs are prepared in dimethyl sulfoxide as stock solutions at a concentration from 1×10^−1 to 1×10^−2 M and stored at −20° C. […] Before the start of the concentration-effect relationship 552-02 a potent sodium channel blocker was applied to the apical surface (1 μM) to eliminate changes in Isc caused by sodium absorption. All data from the voltage clamps are collected via a computer interface and analyzed off-line.
Concentration-effect relationships for all compounds are considered and analyzed Using GraphPad Prism version 3.00 for Windows, GraphPad Software, San Diego Calif. USA.

Row | Compound | melting point | ENaC blocking potency relative to Amiloride [1] | IC50 [1] | EC50 (beta-adrenergic receptor)
1 | CC(=O)Nc1cc([C@@H](O)CNC(C)CCCc2ccc(CCCCNC(=N)NC(=O)c3nc(Cl)c(N)nc3N)cc2)ccc1O (stereo in doubt) (as salt: lactate) [Compound 175, N—(N-(4-(4-((S)-4-((R)-2-(3-acetamido-4-hydroxyphenyl)-2-hydroxyethylamino)pentyl)phenyl)butyl)carbamimidoyl)-3,5-diamino-6-chloropyrazine-2-carboxamide di-L-lactate] | 46 to 50 °C (dec.) | – | – | –
2 | CS(=O)(=O)Nc1cc([C@@H](O)CN(CCCCc2ccc(CCCCNC(=N)NC(=O)c3nc(Cl)c(N)nc3N)cc2)C[C@H](O)c2ccc(O)c(NS(C)(=O)=O)c2)ccc1O [Compound 42, N-[5-(2-{[4-(4-{4-[N′-(3,5-diamino-6-chloropyrazine-2-carbonyl)-guanidino]butyl}phenyl)butyl]-[2-(R)-hydroxy-2-(4-hydroxy-3-methanesulfonyl-aminophenyl)ethyl]amino}-1-(R)-hydroxyethyl)-2-hydroxyphenyl]methane-sulfonamide] | 148 to 150 °C | – | 21.6 nM | –
3 | N=C(NCCCCc1ccc(CCCCN(C[C@H](O)c2ccc(O)c(NC=O)c2)C[C@H](O)c2ccc(O)c(NC=O)c2)cc1)NC(=O)c1nc(Cl)c(N)nc1N [Compound 14, N-{4-[4-(4-{bis-[2-(R)-hydroxy-2-(4-hydroxy-3-formylaminophenyl)-ethyl]amino}butyl)phenyl]butyl}-N′-(3,5-diamino-6-chloropyrazine-2-carbonyl)-guanidine diacetic acid salt] | – | 66 × Amiloride | 17.7 nM | –
4 | N=C(NCCCCc1ccc(CCCCN(C[C@H](O)c2ccc(O)c(NC=O)c2)C[C@H](O)c2ccc(O)c(NC=O)c2)cc1)NC(=O)c1nc(Cl)c(N)nc1N (as salt: salt) [Compound 14, N-{4-[4-(4-{bis-[2-(R)-hydroxy-2-(4-hydroxy-3-formylaminophenyl)-ethyl]amino}butyl)phenyl]butyl}-N′-(3,5-diamino-6-chloropyrazine-2-carbonyl)-guanidine diacetic acid salt] | 128 to 130 °C | – | – | –
5 | N=C(NCCCCc1ccc(CCCCN(C[C@H](O)c2ccc(O)c(CO)c2)C[C@H](O)c2ccc(O)c(CO)c2)cc1)NC(=O)c1nc(Cl)c(N)nc1N [Compound 67, N-{4-[4-(4-{bis-[2-(R)-hydroxy-2-(4-hydroxy-3-hydroxymethylphenyl)-ethyl]amino}butyl)-phenyl]butyl}-N′-(3,5-diamino-6-chloropyrazine-2-carbonyl)-guanidine] | – | 29 × Amiloride | 22.2 nM | –
6 | CC(CCCc1ccc(CCCCNC(=N)NC(=O)c2nc(Cl)c(N)nc2N)cc1)NC[C@H](O)c1cccc(O)c1 (stereo partly drawn) [Compound 143, 3,5-diamino-6-chloro-N-{N-[4-(4-{4-[(R)-2-hydroxy-2-(3-hydroxyphenyl)ethylamino]pentyl}phenyl)butyl]carbamimidoyl}pyrazine-2-carboxamide] | 82 to 86 °C | – | – | –

Next, values leading:

Row | melting point | ENaC blocking potency relative to Amiloride [1] | IC50 [1] | EC50 (beta-adrenergic receptor) | Compound
7 | 116 to 119 °C | – | – | – | C[C@H](CCCc1ccc(CCCCNC(=N)NC(=O)c2nc(Cl)c(N)nc2N)cc1)NC[C@H](O)c1ccc(O)c(NC=O)c1 (as salt: lactate) (hydrate or solvate) [Compound 30, N-(5-{2-[4-(4-{4-[N′-(3,5-diamino-6-chloropyrazine-2-carbonyl)-guanidino]butyl}phenyl)-1-methylbutylamino]-1-(R)-hydroxyethyl}-2-hydroxyphenyl)formamide]
8 | – | 154 × Amiloride | 6.5 nM | – | N=C(NCCCCc1ccc(CCCCNC[C@H](O)c2ccc(O)c(CO)c2)cc1)NC(=O)c1nc(Cl)c(N)nc1N [Compound 63, N-(3,5-diamino-6-chloropyrazine-2-carbonyl)-N′-[4-(4-{4-[2-(R)-hydroxy-2-(4-hydroxy-3-hydroxymethylphenyl)ethylamino]butyl}phenyl)butyl]-guanidine]
9 | 138 to 140 °C | 132 × Amiloride | 5.7 nM | 151 nM | N=C(NCCCCc1ccc(CCCCNC[C@H](O)c2ccc(O)c(NC=O)c2)cc1)NC(=O)c1nc(Cl)c(N)nc1N [Compound 12, N-(5-{2-[4-(4-{4-[N′-(3,5-diamino-6-chloropyrazine-2-carbonyl)guanidino]butyl}phenyl)butylamino]-1-(R)-hydroxyethyl}-2-hydroxyphenyl)formamide]
10 | 108 to 110 °C | 91 × Amiloride | 9.2 nM | 1580 nM | CS(=O)(=O)Nc1cc([C@@H](O)CNCCCCc2ccc(CCCCNC(=N)NC(=O)c3nc(Cl)c(N)nc3N)cc2)ccc1O [Compound 40, N-(5-{2-[4-(4-{4-[N′-(3,5-diamino-6-chloropyrazine-2-carbonyl)-guanidino]butyl}phenyl)butylamino]-1-(R)-hydroxyethyl}-2-hydroxyphenyl)-methanesulfonamide]
11 | 120 to 124 °C (dec.) | 120 × Amiloride | 10 nM | – | N=C(NCCCCc1ccc(OCCNC[C@H](O)c2ccc(O)c(NC=O)c2)cc1)NC(=O)c1nc(Cl)c(N)nc1N [Compound 19, N-(5-{2-[2-(4-{4-[N-(3,5-diamino-6-chloropyrazine-2-carbonyl)guanidine]butyl}phenoxy)ethylamino]-1-(R)-hydroxylethyl}-2-hydroxyphenyl)-formamide]

Reference: US8163758B2 (Parion Sciences, Inc., priority 2006, dated 2012)
